Patent US6780855B2, “11β-HALOGEN-7α-SUBSTITUTED ESTRATRIENES, PROCESS FOR THE PRODUCTION OF PHARMACEUTICAL PREPARATIONS THAT CONTAIN THESE 11β-HALOGEN-7α-SUBSTITUTED ESTRATRIENES AS WELL AS THEIR USE FOR THE PRODUCTION OF PHARMACEUTICAL AGENTS” (Schering Aktiengesellschaft, priority 1997, dated 2004)

Assays:
MVLN cells = assay: Transactivation assay for antiestrogenic action in MVLN cells (reporter gene Vit-TK-LUC); type: cell-based; conditions: Homo sapiens; MVLN cell line, in the presence of 0.1 nM of estradiol
Description: (§1) The antiestrogenic action of the compounds according to the invention was determined in transactivation assays [Demirpence, E.; Duchesne, M.-J.; Badia, E.; Gagne, D. and Pons, M.: MVLN Cells: a Bioluminescent MCF-7-Derived cell Line to Study the Modulation of Estrogenic Activity; J. Steroid. Molec. Biol. Vol. 46, No. 3, 355-364 (1993) and Berry, M.; Metzger, D.; Chambon, P.: Role of the Two Activating Domains of the Estrogen Receptor in the Cell-type and Promoter-context Dependent Agonistic Activity of the Anti-estrogen 4-Hydroxytamoxifen; The EMBO Journal Vol. 9, 2811-2818 (1990)].
The MVLN cells are transfixed in a stable manner with reporter gene Vit-TK-LUC. The antiestrogenic active strength was determined in the presence of 0.1 nM of estradiol.
(§2) The IC50 values for the new compounds are in the nanomolar range. In the MVLN cell line, the following IC50 values are produced for the compound of Examples 3 and 8 (execution of test according to the above-indicated bibliographic references): […]

HeLa = assay: Transactivation assay for antiestrogenic action in HeLa cells; type: cell-based; conditions: Homo sapiens
Description: as §1, §2

uterus = assay: Uterus growth test in infantile rats (antiestrogenic action), p.o.; type: in vivo; conditions: 0.3 mg p.o. once daily over 3 days with 0.5 μg estradiol benzoate s.c., inhibition compared to EB-control
Description: The uterus growth test in infantile rats, p.o. (test on antiestrogenic action in vivo) also confirms the antiestrogenic action of the compounds according to the invention. The test was performed as described below:
Uterus Growth Test in Infantile Rats (Antiestrogenic Action)
In rodents, the uterus reacts to the application of estrogens with an increase in weight (both proliferation and water retention). This growth can be inhibited in a dose-dependent manner by simultaneous administration of compounds that have an antiestrogenic action.
Infantile female rats weighing 35-45 g at the beginning of the test, 5-6 animals per dose.
Formulation and Administration of the Substances: […]
For the p.o. administration, the substances are dissolved in 1 part ethanol (E) and made up with 9 parts peanut oil (EÖ).
The young rats just dropped by the mothers are delivered for acclimation one day before the beginning of treatment and immediately supplied with food—right in the cage. […] The moist weight (less contents) is determined from the prepared uteri. […]
The average values are determined with standard deviation (X+SD) and the significance of the differences in the control group (EB) in the Dunnett Test (p<0.05) for each group from the relative organ weights (mg/100 g of body weight). […] The relative actions of the test substances are determined by co-variance analysis and regression analysis.

human estrogen receptor = assay: Partial estrogenic action: transactivation assay, HeLa cells with HEGO and reporter gene rPR-TK-CAT; type: cell-based; conditions: concentration of 1 μm, negative value means suppression of reporter gene activity below controls
Description: The partial estrogenic action of compounds according to the invention was determined by transactivation assays. HeLa cells were transfixed with human estrogen receptor expression vector (HEGO) and a reporter gene rPR-TK-CAT. This reporter gene contains the “Estrogen Responsive Element” of the rabbit progesterone receptor gene (+698/+729 region) before a TK-CAT gene (Savouret, J. F.; Bailly, A.; Misrahi, M.; Rauch, C.; Redeuilh, G.; Chauchereau, A.; Milgrom, E., Characterization of the Hormone Responsive Element Involved in the Regulation of the Progesterone Receptor Gene. EMBO J. 10, 1875-1883 (1991).
The estrogenic action was determined at a concentration of 1 μm.

melting point [°C]	Structure (SMILES)	IC50 (MVLN cells) [nM]	IC50 (HeLa) [nM]	Antiuterotrophic action at 0.3 mg [% inhibition] (uterus)	Activation of the rPR-TK Promoter [% estradiol] (human estrogen receptor)
110	CN(CCCCCCCC(F)(F)C(F)(F)F)CCCCC[C@@H]1Cc2cc(O)ccc2[C@@H]2[C@@H]1[C@@H]1CC[C@H](O)[C@@]1(C)C[C@@H]2F				
	CN(CCCCCCCCC(F)(F)C(F)(F)F)CCCCC[C@@H]1Cc2cc(O)ccc2[C@@H]2[C@@H]1[C@@H]1CC[C@H](O)[C@@]1(C)C[C@@H]2F [Example 3, 11β-Fluoro-7α-{5-[methyl-(9,9,10,10,10-pentafluoro-decyl)-amino]-pentyl}-estra-1,3,5(10)-triene-3,17β-diol]	6.3	0.2	68	−25
	CN(CCCCC[C@@H]1Cc2cc(O)ccc2[C@@H]2[C@@H]1[C@@H]1CC[C@H](O)[C@@]1(C)C[C@@H]2F)CCCC(F)(F)C(F)(F)F [Example 8, 11β-Fluoro-7α-{5-[methyl-(4,4,5,5,5-pentafluoro-pentyl)-amino]-pentyl}-estra-1,3,5(10)-triene-3,17β-diol]	37	8	0	48
	CN(CCCCCCC(F)(F)C(F)(F)F)CCCCC[C@@H]1Cc2cc(O)ccc2[C@@H]2[C@@H]1[C@@H]1CC[C@H](O)[C@@]1(C)C[C@@H]2F [Example 12, 11β-Fluoro-7α-{5-[methyl-(7,7,8,8,8-pentafluor-octyl)-amino]-pentyl}-estra-1,3,5(10)-triene-3,17β-diol]				34
	CN(CC=C(F)C(F)(F)C(F)(F)C(F)(F)F)CCCCC[C@@H]1Cc2cc(O)ccc2[C@@H]2[C@@H]1[C@@H]1CC[C@H](O)[C@@]1(C)C[C@@H]2F [Example 18, 11β-Fluoro-7α-{5-[methyl-(3,4,4,5,5,6,6,6-octafluoro-hex-2-enyl)-amino]-pentyl}-estra-1,3,5(10)-triene-3,17β-diol]				29
	CN(CCCCC[C@@H]1Cc2cc(O)ccc2[C@@H]2[C@@H]1[C@@H]1CC[C@H](O)[C@@]1(C)C[C@@H]2F)CCCOCc1ccccc1 [Example 22, 7α-{5-[(3-Benzyloxy-propyl)-methyl-amino]-pentyl}-11β-fluor-estra-1,3,5(10)-triene-3,17β-diol]				53
